What was measured:
[1] = biological target: Tyrosine-protein kinase ABL1 (Homo sapiens, UniProt P00519); test: Inhibition of full length NanoLuc fused ABL1 (unknown origin) transfected in HEK293T cells using NanoBRET NanoGlo substrate incubated for 2 hrs in presence of tracer by NanoBRET assay; format: cell-based
[2] = Drug metabolism in Sprague-Dawley rat liver microsomes assessed as compound metabolized incubated for 60 mins in presence of NADPH by HPLC analysis; format: ADME, Microsome; conditions: 1 h
SK-OV-3 [3] = test: Induction of cell cycle arrest in human SK-OV-3 cells assessed as accumulation of cells at interphase at 5 uM incubated for 24 hrs by flow cytometry; format: functional
[4] = biological target: Ephrin type-B receptor 1 (Homo sapiens) (UniProt P54762); test: Binding affinity to recombinant EPHB1 (unknown origin) assessed as stabilization by measuring change in melting temperature at 10 uM by SYPRO orange dye based differential scanning fluorimetry assay
[5] = biological target: Cyclin-G-associated kinase (Homo sapiens, UniProt O14976); test: Inhibition of full length NanoLuc fused GAK (unknown origin) transfected in HEK293T cells using NanoBRET NanoGlo substrate incubated for 2 hrs in presence of tracer by NanoBRET assay; format: cell-based
[6] = biological target: T1, Serine/threonine-protein kinase 3 (Homo sapiens) (UniProt Q13188); test: Binding affinity to recombinant MST2 (unknown origin) assessed as stabilization by measuring change in melting temperature at 10 uM by SYPRO orange dye based differential scanning fluorimetry assay
T1 sequence (whole entry): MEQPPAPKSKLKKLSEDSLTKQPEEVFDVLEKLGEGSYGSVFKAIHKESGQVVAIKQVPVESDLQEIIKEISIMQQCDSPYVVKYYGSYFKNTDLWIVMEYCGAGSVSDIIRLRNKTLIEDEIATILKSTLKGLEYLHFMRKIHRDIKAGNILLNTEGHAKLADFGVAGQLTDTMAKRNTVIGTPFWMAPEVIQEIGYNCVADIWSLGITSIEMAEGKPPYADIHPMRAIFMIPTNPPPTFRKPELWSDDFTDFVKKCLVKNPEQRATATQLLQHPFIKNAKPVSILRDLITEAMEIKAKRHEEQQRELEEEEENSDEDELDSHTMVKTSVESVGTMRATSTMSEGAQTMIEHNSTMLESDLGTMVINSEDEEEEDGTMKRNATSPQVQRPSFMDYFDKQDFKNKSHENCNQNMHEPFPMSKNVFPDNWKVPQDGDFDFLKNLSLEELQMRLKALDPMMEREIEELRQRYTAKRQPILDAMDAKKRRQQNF

Ephrin type-B receptor 3 = Ephrin type-B receptor 3 (Homo sapiens, UniProt P54753); test: Inhibition of full length NanoLuc fused EPHB3 (unknown origin) transfected in HEK293T cells using NanoBRET NanoGlo substrate incubated for 2 hrs in presence of tracer by NanoBRET assay; format: cell-based
SK-OV-3 [7] = test: Induction of cell cycle arrest in human SK-OV-3 cells assessed as accumulation of cells at S phase at 5 uM incubated for 24 hrs by flow cytometry (reference value: 32%); format: functional
Ephrin type-A receptor 3 = Ephrin type-A receptor 3 (Homo sapiens, UniProt P29320); test: Inhibition of full length NanoLuc fused EPHA3 (unknown origin) transfected in HEK293T cells using NanoBRET NanoGlo substrate incubated for 2 hrs in presence of tracer by NanoBRET assay; format: cell-based
Ephrin type-A receptor 2 = Ephrin type-A receptor 2 (Homo sapiens, UniProt P29317); test: Binding affinity to recombinant EPHA2 (unknown origin) assessed as stabilization by measuring change in melting temperature at 10 uM by SYPRO orange dye based differential scanning fluorimetry assay
Chain of Ephrin type-A receptor 2 (P29317 whole entry): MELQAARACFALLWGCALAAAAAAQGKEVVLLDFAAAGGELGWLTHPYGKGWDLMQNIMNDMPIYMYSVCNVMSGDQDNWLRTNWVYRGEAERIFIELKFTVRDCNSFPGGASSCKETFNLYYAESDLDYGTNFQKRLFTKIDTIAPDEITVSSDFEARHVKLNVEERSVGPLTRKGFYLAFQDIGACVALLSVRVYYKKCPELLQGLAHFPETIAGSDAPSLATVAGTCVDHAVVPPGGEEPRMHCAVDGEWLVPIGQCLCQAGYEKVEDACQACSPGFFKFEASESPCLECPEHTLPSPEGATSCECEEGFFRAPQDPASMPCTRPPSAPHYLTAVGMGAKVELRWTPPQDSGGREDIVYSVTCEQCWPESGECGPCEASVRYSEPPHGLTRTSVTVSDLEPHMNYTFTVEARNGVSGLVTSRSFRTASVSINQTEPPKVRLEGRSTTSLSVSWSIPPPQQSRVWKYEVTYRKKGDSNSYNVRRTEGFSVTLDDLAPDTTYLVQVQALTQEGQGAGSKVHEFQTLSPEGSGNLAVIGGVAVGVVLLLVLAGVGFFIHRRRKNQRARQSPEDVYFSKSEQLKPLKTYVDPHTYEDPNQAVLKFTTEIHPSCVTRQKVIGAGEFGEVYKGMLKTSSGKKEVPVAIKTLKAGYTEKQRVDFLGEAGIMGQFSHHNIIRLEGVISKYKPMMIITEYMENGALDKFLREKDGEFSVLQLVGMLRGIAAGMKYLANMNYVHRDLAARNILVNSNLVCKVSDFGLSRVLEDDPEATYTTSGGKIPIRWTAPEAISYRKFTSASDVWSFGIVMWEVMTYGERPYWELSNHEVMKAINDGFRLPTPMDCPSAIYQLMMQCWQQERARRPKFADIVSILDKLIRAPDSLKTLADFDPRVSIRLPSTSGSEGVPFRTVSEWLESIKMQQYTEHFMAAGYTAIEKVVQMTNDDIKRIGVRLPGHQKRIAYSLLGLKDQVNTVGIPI

Chain of Ephrin type-B receptor 1 (Homo sapiens) (P54762 whole entry, the tested form may be a part): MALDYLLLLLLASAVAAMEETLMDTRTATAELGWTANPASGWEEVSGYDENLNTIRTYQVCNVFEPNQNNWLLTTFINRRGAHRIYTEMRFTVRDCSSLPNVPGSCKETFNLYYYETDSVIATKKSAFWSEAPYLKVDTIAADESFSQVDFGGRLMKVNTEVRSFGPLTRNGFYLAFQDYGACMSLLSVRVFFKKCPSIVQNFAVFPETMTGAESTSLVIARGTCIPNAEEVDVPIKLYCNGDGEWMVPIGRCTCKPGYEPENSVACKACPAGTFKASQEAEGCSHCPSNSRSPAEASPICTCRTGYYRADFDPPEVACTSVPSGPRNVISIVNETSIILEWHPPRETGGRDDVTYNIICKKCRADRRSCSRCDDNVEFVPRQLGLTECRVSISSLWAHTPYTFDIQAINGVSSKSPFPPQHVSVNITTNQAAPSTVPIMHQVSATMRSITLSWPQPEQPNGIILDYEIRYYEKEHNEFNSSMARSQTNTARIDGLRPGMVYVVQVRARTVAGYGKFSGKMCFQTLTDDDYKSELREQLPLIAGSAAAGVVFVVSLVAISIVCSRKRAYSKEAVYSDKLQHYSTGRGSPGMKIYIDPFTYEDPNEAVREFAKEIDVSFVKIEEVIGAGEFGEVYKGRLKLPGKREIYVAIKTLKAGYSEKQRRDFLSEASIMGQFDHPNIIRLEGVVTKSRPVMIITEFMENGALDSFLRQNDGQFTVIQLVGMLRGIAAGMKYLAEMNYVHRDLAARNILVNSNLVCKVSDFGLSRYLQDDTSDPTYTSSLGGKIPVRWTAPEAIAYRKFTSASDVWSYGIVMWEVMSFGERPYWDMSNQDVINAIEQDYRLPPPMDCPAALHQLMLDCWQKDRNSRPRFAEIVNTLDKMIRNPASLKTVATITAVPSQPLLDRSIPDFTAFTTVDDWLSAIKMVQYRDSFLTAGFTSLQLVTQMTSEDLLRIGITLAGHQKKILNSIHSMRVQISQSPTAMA
Chain of Cyclin-G-associated kinase (O14976 whole entry, the tested form may be a part): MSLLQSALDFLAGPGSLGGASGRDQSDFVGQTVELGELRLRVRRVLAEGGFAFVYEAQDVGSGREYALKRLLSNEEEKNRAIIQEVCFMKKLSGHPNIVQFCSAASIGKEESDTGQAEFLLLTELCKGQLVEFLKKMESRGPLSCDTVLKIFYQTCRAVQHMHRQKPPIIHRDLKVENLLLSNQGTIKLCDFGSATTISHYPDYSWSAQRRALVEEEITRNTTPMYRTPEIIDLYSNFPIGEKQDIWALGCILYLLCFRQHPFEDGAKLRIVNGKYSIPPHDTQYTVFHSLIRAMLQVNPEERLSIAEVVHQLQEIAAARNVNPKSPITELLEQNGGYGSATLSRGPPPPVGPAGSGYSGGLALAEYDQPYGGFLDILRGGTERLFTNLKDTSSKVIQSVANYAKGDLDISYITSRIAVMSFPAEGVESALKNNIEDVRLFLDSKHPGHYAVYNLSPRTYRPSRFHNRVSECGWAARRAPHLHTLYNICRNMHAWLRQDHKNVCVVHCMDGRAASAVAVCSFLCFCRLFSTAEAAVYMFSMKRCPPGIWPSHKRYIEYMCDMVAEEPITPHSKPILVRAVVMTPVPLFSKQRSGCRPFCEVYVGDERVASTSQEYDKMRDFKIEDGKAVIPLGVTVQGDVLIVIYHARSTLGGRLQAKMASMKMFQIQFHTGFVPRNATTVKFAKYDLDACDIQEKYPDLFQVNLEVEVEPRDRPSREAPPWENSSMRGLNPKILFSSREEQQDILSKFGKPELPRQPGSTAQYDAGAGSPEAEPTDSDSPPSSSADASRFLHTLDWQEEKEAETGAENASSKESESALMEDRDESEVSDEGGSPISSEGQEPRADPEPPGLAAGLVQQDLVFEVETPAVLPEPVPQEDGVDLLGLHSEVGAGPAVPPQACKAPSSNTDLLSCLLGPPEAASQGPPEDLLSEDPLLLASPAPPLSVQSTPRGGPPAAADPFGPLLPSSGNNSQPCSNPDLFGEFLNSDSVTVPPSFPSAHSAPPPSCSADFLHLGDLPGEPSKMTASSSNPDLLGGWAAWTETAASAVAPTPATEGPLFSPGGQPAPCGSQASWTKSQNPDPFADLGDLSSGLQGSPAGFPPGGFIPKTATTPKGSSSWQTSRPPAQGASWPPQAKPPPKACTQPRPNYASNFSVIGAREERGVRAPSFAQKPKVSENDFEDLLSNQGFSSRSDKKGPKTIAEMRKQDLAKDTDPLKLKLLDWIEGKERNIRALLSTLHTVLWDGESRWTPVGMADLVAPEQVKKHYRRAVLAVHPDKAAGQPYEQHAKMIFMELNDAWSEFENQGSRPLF
Chain of Ephrin type-A receptor 3 (P29320 whole entry, the tested form may be a part): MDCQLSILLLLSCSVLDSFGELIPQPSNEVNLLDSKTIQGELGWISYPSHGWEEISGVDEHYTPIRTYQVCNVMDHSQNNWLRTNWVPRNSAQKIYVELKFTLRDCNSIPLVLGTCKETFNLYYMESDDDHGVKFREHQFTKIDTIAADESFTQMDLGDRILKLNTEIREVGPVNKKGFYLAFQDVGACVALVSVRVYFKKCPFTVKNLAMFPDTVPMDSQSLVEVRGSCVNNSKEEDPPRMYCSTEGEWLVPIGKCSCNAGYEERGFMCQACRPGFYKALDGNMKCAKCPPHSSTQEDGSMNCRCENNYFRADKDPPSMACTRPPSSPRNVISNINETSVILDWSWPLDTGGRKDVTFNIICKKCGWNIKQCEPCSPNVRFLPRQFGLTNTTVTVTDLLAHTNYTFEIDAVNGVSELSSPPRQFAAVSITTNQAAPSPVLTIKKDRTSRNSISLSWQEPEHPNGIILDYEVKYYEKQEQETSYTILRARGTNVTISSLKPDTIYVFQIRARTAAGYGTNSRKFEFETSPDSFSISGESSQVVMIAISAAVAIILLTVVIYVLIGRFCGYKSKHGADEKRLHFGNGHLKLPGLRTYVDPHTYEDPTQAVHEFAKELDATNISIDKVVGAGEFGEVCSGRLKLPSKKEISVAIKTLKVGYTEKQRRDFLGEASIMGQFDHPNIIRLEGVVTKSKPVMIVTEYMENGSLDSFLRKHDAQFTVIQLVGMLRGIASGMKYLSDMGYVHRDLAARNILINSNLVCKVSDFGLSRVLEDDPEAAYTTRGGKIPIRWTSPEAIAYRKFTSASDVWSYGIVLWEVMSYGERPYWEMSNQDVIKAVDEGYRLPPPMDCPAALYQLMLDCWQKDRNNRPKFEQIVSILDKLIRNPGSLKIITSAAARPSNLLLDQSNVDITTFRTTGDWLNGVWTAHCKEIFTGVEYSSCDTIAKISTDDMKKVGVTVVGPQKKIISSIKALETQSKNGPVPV

CNc1ncc2cc(-c3cc(F)ccc3F)c(=O)n(CCCCN)c2n1
IC50 [1]: 28.1 µM | Drug metabolism [2]: Metabolite_Detected | Activity (SK-OV-3 [3]): 69% | ΔTm [4]: 7 °C | IC50 [5]: 33.8 µM | ΔTm [6]: 0.6 °C | IC50 (Ephrin type-B receptor 3): 18.3 µM | Activity (SK-OV-3 [7]): 19% | IC50 (Ephrin type-A receptor 3): 2.1 µM | ΔTm (Ephrin type-A receptor 2): 8.9 °C

From ChEMBL document CHEMBL5325437, “Shifting the selectivity of pyrido[2,3-d]pyrimidin-7(8H)-one inhibitors towards the salt-inducible kinase (SIK) subfamily” (Eur J Med Chem, 2023)
